Test results: ChEMBL document CHEMBL1138677, “Design, synthesis, and biological evaluation of new cyclic disulfide decapeptides that inhibit the binding of AP-1 to DNA” (J Med Chem, 2004)
Residues, ends and D or L forms follow the SMILES beside them.

Tests used:
[1] = target: Transcription factor AP1 (Homo sapiens) (UniProt P05412+P01100); assay: Percent inhibition of transcription activator protein-1 (AP-1) in DNA binding assay at 100 uM; assay type: protein-complex assay
Transcription factor AP1 = Transcription factor AP1 (Homo sapiens, UniProt P01100+P05412); assay: Inhibitory activity against transcription activator protein-1 (AP-1); assay type: protein-complex assay
Transcription factor AP1, sequence (P05412 whole entry): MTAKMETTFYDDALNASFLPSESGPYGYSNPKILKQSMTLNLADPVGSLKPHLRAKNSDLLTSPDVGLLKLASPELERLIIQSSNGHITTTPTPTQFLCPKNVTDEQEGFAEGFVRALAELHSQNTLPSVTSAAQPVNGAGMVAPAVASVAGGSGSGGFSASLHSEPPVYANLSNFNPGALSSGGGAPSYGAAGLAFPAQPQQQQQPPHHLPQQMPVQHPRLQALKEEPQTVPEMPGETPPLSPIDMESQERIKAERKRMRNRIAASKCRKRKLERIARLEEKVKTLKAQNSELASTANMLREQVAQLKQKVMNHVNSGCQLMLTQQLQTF
Transcription factor AP1, sequence (P01100 whole entry): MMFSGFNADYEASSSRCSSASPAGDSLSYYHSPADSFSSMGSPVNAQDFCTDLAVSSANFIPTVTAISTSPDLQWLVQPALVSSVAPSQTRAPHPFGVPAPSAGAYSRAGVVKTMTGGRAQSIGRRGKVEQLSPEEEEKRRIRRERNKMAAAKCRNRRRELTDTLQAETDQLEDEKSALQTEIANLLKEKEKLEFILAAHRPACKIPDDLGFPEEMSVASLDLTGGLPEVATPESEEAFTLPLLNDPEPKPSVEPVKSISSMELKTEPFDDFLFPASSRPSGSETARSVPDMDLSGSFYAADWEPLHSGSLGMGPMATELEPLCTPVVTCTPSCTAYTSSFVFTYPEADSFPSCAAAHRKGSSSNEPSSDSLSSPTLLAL

**Q.** Which inhibition [1] does the source give for `CC(C)C[C@H](NC(=O)[C@H](C)NC(=O)[C@H](CC(C)C)NC(=O)[C@H](CCC(N)=O)NC(=O)CN)C(=O)N[C@@H](C)C(=O)N[C@@H](CC(=O)O)C(=O)NCC(=O)O` (H-GQLALADG-OH) here?
**A.** -1%

**Q.** What about the IC50 (Transcription factor AP1) of the same compound?
**A.** > 200 µM

**Q.** How did the inhibition [1] turn out when `CC(C)C[C@H](NC(=O)[C@H](CC(=O)O)NC(=O)[C@H](CC(C)C)NC(=O)[C@H](CCCCN)NC(=O)CN)C(=O)N[C@@H](C)C(=O)N[C@@H](CC(=O)O)C(=O)NCC(=O)O` (H-GKLDLADG-OH) was run?
**A.** -2%

**Q.** And the IC50 (Transcription factor AP1)?
**A.** > 200 µM

**Q.** How did the inhibition [1] turn out when `CC(C)C[C@H](NC(=O)[C@H](CC(=O)O)NC(=O)[C@H](CC(C)C)NC(=O)[C@H](CCC(N)=O)NC(=O)CN)C(=O)NCC(=O)N[C@@H](CC(=O)O)C(=O)NCC(=O)O` (H-GQLDLGDG-OH) was run?
**A.** 1%

**Q.** And the IC50 (Transcription factor AP1)?
**A.** > 200 µM

**Q.** For `CC(C)C[C@H](NC(=O)[C@H](CC(=O)O)NC(=O)[C@H](CC(C)C)NC(=O)[C@H](CCC(N)=O)NC(=O)CN)C(=O)N[C@@H](C)C(=O)N[C@@H](CC(N)=O)C(=O)NCC(=O)O` (H-GQLDLANG-OH), which inhibition [1] is on record?
**A.** 64%

**Q.** What about the IC50 (Transcription factor AP1) of the same compound?
**A.** 52 µM

**Q.** What does the source list for `CC(C)C[C@H](NC(=O)[C@H](CC(=O)O)NC(=O)[C@H](CC(C)C)NC(=O)[C@@H](N)CCC(N)=O)C(=O)N[C@@H](C)C(=O)N[C@@H](CC(=O)O)C(=O)NCC(=O)O` (H-QLDLADG-OH)?
**A.** inhibition [1]: -2%; IC50 (Transcription factor AP1): > 100 µM

**Q.** How did the inhibition [1] turn out when `CC(C)C[C@H](NC(=O)[C@H](CCC(N)=O)NC(=O)CN)C(=O)N[C@@H](CC(=O)O)C(=O)N[C@@H](CC1CCCCC1)C(=O)N[C@@H](C)C(=O)N[C@@H](CC(=O)O)C(=O)NCC(=O)O` (HELM PEPTIDE1{G.Q.L.D.[Cha].A.D.G}$$$$V2.0) was run?
**A.** 10%

**Q.** And the IC50 (Transcription factor AP1)?
**A.** > 100 µM

**Q.** Which inhibition [1] does the source give for `CC(C)C[C@H](NC(=O)[C@H](CC(=O)O)NC(=O)[C@H](CC(C)C)NC(=O)[C@H](CCC(=O)O)NC(=O)CN)C(=O)N[C@@H](C)C(=O)N[C@@H](CC(=O)O)C(=O)NCC(=O)O` (H-GELDLADG-OH) here?
**A.** -2%

**Q.** And the IC50 (Transcription factor AP1)?
**A.** > 200 µM

**Q.** Which results are given for `CC(C)C[C@H](NC(=O)[C@H](CC(=O)O)NC(=O)[C@H](CC(C)C)NC(=O)[C@H](CC(N)=O)NC(=O)CN)C(=O)N[C@@H](C)C(=O)N[C@@H](CC(=O)O)C(=O)NCC(=O)O` (H-GNLDLADG-OH)?
**A.** inhibition [1]: 42%; IC50 (Transcription factor AP1): > 100 µM

**Q.** Which results are given for `CC(C)C[C@H](NC(=O)[C@H](CCC(N)=O)NC(=O)CN)C(=O)N[C@@H](CC(=O)O)C(=O)N[C@@H](C)C(=O)N[C@@H](C)C(=O)N[C@@H](CC(=O)O)C(=O)NCC(=O)O` (H-GQLDAADG-OH)?
**A.** inhibition [1]: 7%; IC50 (Transcription factor AP1): > 100 µM

**Q.** For `CC(C)C[C@H](NC(=O)[C@H](CC(=O)O)NC(=O)[C@H](CC(C)C)NC(=O)[C@H](CCC(N)=O)NC(=O)CN)C(=O)N[C@@H](C)C(=O)N[C@@H](CC(=O)O)C(=O)O` (H-GQLDLAD-OH), which inhibition [1] is on record?
**A.** 11%

**Q.** And the IC50 (Transcription factor AP1)?
**A.** > 100 µM

**Q.** With `CC(C)C[C@H](NC(=O)[C@H](CC(=O)O)NC(=O)[C@H](CC(C)C)NC(=O)[C@H](CCC(N)=O)NC(=O)[C@H](C)N)C(=O)N[C@@H](C)C(=O)N[C@@H](CC(=O)O)C(=O)NCC(=O)O` (H-AQLDLADG-OH) as the compound, how does the inhibition [1] read?
**A.** 5%

**Q.** What about the IC50 (Transcription factor AP1) of the same compound?
**A.** > 100 µM

**Q.** `CC(C)C[C@H](NC(=O)[C@H](CC(=O)O)NC(=O)[C@H](C)NC(=O)[C@H](CCC(N)=O)NC(=O)CN)C(=O)N[C@@H](C)C(=O)N[C@@H](CC(=O)O)C(=O)NCC(=O)O` (H-GQADLADG-OH) was tested. Which inhibition [1] did it give?
**A.** 11%

**Q.** And the IC50 (Transcription factor AP1)?
**A.** > 100 µM

**Q.** Which inhibition [1] does the source give for `CC(C)C[C@H](NC(=O)[C@H](C)NC(=O)CN)C(=O)N[C@@H](CC(=O)O)C(=O)N[C@@H](CC(C)C)C(=O)N[C@@H](C)C(=O)N[C@@H](CC(=O)O)C(=O)NCC(=O)O` (H-GALDLADG-OH) here?
**A.** 29%

**Q.** What about the IC50 (Transcription factor AP1) of the same compound?
**A.** > 100 µM

**Q.** `CC(C)C[C@H](NC(=O)[C@H](CC(=O)O)NC(=O)[C@H](CC(C)C)NC(=O)[C@H](CCC(N)=O)NC(=O)CN)C(=O)N[C@@H](C)C(=O)N[C@@H](C)C(=O)NCC(=O)O` (H-GQLDLAAG-OH) was tested. Which inhibition [1] did it give?
**A.** 14%

**Q.** What about the IC50 (Transcription factor AP1) of the same compound?
**A.** > 100 µM

**Q.** Which inhibition [1] does the source give for `CC(C)C[C@H](NC(=O)[C@H](CC(=O)O)NC(=O)[C@H](CC(C)C)NC(=O)[C@H](CCC(N)=O)NC(=O)CN)C(=O)N[C@@H](C)C(=O)N[C@@H](CC(=O)O)C(=O)N[C@@H](C)C(=O)O` (H-GQLDLADA-OH) here?
**A.** 15%

**Q.** What about the IC50 (Transcription factor AP1) of the same compound?
**A.** > 100 µM

**Q.** With `CC(C)C[C@H](NC(=O)[C@H](CC(=O)O)NC(=O)[C@H](CC1CCCCC1)NC(=O)[C@H](CCC(N)=O)NC(=O)CN)C(=O)N[C@@H](C)C(=O)N[C@@H](CC(=O)O)C(=O)NCC(=O)O` (HELM PEPTIDE1{G.Q.[Cha].D.L.A.D.G}$$$$V2.0) as the compound, how does the IC50 (Transcription factor AP1) read?
**A.** > 100 µM

**Q.** Which inhibition [1] does the source give for `CC(C)C[C@H](NC(=O)[C@H](CC(=O)O)NC(=O)[C@H](CC(C)C)NC(=O)[C@H](CCC(N)=O)NC(=O)CN)C(=O)N[C@@H](C)C(=O)N[C@@H](CC(=O)O)C(=O)NCC(=O)O` (H-GQLDLADG-OH) here?
**A.** 81%

**Q.** What about the IC50 (Transcription factor AP1) of the same compound?
**A.** 8 µM
